Key:
BaF3 [1] = test: Antiproliferative activity against mouse BaF3 cells harboring wild-type FGFR1 assessed as reduction in cell proliferation measured after 72 hrs by MTS assay; type: functional, cell-based; conditions: BaF3, 72 h
BaF3 [2] = test: Antiproliferative activity against mouse BaF3 cells harboring wild-type FGFR4 assessed as reduction in cell proliferation measured after 72 hrs by MTS assay; type: functional, cell-based; conditions: BaF3, 72 h
BaF3 [3] = test: Antiproliferative activity against mouse BaF3 cells harboring FGFR2 V564M mutant assessed as reduction in cell proliferation measured after 72 hrs by MTS assay; type: functional, cell-based; conditions: BaF3, 72 h
BaF3 [4] = test: Antiproliferative activity against mouse BaF3 cells harboring wild-type FGFR2 assessed as reduction in cell proliferation measured after 72 hrs by MTS assay; type: functional, cell-based; conditions: BaF3, 72 h
BaF3 [5] = test: Antiproliferative activity against mouse BaF3 cells harboring wild-type FGFR3 assessed as reduction in cell proliferation measured after 72 hrs by MTS assay; type: functional, cell-based; conditions: BaF3, 72 h
[6] = Inhibition of SRC T338M mutant (unknown origin); set-up: species or system Homo sapiens

| EC50 (BaF3 [1]) [nM] | EC50 (BaF3 [2]) [nM] | EC50 (BaF3 [3]) [nM] | EC50 (BaF3 [4]) [nM] | EC50 (BaF3 [5]) [nM] | IC50 [6] [nM] | SMILES |
| --- | --- | --- | --- | --- | --- | --- |
| 1 | 1 | 64 | 1 | 1 | – | C=CC(=O)Nc1ccc(CN(C(=O)Nc2c(Cl)c(OC)cc(OC)c2Cl)c2cc(Nc3ccc(N4CCN(C)CC4)cc3)ncn2)cc1 |
| – | – | – | – | – | 44 | C=CS(=O)(=O)NCCC(=O)Nc1cccc(Nc2nccc(Nc3ncc(C(=O)Nc4c(C)cccc4Cl)s3)n2)c1 |
| 1 | 1 | 58 | 1 | 1 | – | C=CC(=O)Nc1ccc(CN2C(=O)N(c3cc(OC)cc(OC)c3)Cc3cnc(Nc4ccc(N5CCN(C)CC5)cc4)nc32)cc1 |

Reference: ChEMBL document CHEMBL5104097, “Discovery of Cysteine-targeting Covalent Protein Kinase Inhibitors” (J Med Chem, 2022)
